≈ marks a conversion by molar mass, not a printed value. Like-named read-outs stand apart in the source and are kept apart here.
Tests used:
[1] = system: NIH-3T3 mammalian fibroblasts; assay: Counterscreen mammalian cell toxicity assay (Alamar Blue); assay type: cell-based, murine; settings: n = 1, 48 hours, tested up to 26 μM
Protocol: Quiescent murine fibroblasts were subjected to incubation with compounds of interest for 48 hours. Subsequent cell viability was determined via measuring Alamar Blue fluorescence.
Procedures • After overnight culture, pin compounds into wells at 100 nL/well using the CyBio CyBi-Well pinning instrument. • Return the plates to the tissue culture incubator and incubate the culture for an additional 48 hours at 37° C. under 5% CO2. • At the completion of this incubation, add Alamar Blue solution diluted 1:40 in PBS to each well (10 μL/well) to achieve a final dilution of 1:200. • Incubate the plates for an additional 2-3 hours at 37° C. under 5% CO2. • Read the Relative Fluorescence Intensity (RFU) of wells on a standard plate reader as a measure of relative cell growth. […] 4.4.

[2] = Solubility in PBS pH 7.4 with 1% DMSO; settings: for solubility at 24 h: phosphate buffered saline with 1% DMSO, pH 7.4, aqueous buffer, kinetic from dmso stock
Protocol: Solubility was determined in phosphate buffered saline (PBS) pH 7.4 with 1% DMSO. Each compound was prepared in duplicate at 100 μM in both 100% DMSO and PBS with 1% DMSO. Compounds were allowed to equilibrate at room temperature with a 250 rpm orbital shake for 24 hours. After equilibration, samples were analyzed by UPLC-MS (Waters, Milford, Mass.) with compounds detected by SIR detection on a single quadrupole mass spectrometer. The DMSO samples were used to create a two-point calibration curve to which the response in PBS was fit.

[3] = system: Candida albicans CaCi-17; assay: Primary assay: C. albicans CaCi-17 growth inhibition (Alamar Blue); assay type: cell-based; settings: n = 3, 48 hours, tested up to 26 μM; for IC50: read-out: Growth Inhibition Activity, IC50 (μM), C. albicans (n = 3) CaCi-17
[4] = system: Candida albicans CaCi-2; assay: Primary assay: C. albicans CaCi-2 growth inhibition (Alamar Blue); assay type: cell-based; settings: n = 3, 48 hours, tested up to 26 μM; for IC50: read-out: Growth Inhibition Activity, IC50 (μM), C. albicans (n = 3) CaCi-2
[5] = read-out: Growth Inhibition Activity, IC50 (μM), 3T3 Fibroblasts (n = 1), Table 4
[6] = Table 4, PBS pH 7.4 with 1% DMSO, 24 hours, room temperature

Cc1ccc(N2C(=S)N(C(=O)Oc3ccccc3)C(=O)C23CCCCC3)cc1 [compound 56604875]
Growth Inhibition Activity, IC50 (μM), 3T3 Fibroblasts (n = 1) ([1]; Table 3): Inactive
PBS Solubility ([2]; Table 3, PBS pH 7.4 with 1% DMSO, 24 hours, room temperature): <1.0 µM
Growth Inhibition Activity, IC50 (μM), C. albicans (n = 3) CaCi-17 ([3]; Table 3): inactive
Growth Inhibition Activity, IC50 (μM), C. albicans (n = 3) CaCi-2 ([4]; Table 3): inactive

Cc1ccc(N2CC(=O)NC2=S)cc1 [compound 56604844]
IC50 ([1]; Mus musculus, NIH3T3, read-out: Growth Inhibition Activity, IC50 (μM), 3T3 Fibroblasts (n = 1), Table 7): 20.7 µM
solubility at 24 h [2]: < 1 µM
Growth Inhibition Activity, IC50 (μM), C. albicans (n = 3) CaCi-17 ([3]; Table 7): inactive
Growth Inhibition Activity, IC50 (μM), C. albicans (n = 3) CaCi-2 ([4]; Table 7): inactive

CC(C)N1C(=S)NC(=O)C12CCCCC2 [compound 56604820]
Growth Inhibition Activity, IC50 (μM), 3T3 Fibroblasts (n = 1) ([1]; Table 7): Inactive
solubility at 24 h [2]: 32 µM (≈ 7.24 µg/mL)
Growth Inhibition Activity, IC50 (μM), C. albicans (n = 3) CaCi-17 ([3]; Table 7): inactive
Growth Inhibition Activity, IC50 (μM), C. albicans (n = 3) CaCi-2 ([4]; Table 7): inactive

CCOC(=O)N1C(=O)C2(CCCCC2)NC1=S [compound 56604830]
Growth Inhibition Activity, IC50 (μM), 3T3 Fibroblasts (n = 1) ([1]; Table 4): Inactive
PBS Solubility ([2]; pH 7.4): 61 µM
Growth Inhibition Activity, IC50 (μM), C. albicans (n = 3) CaCi-17 ([3]; Table 4): inactive
Growth Inhibition Activity, IC50 (μM), C. albicans (n = 3) CaCi-2 ([4]; Table 4): inactive

CCOC(=O)N1C(=O)C2(CCCCC2)N(c2ccc(OC)cc2)C1=S [compound 56604819]
Growth Inhibition Activity, IC50 (μM), 3T3 Fibroblasts (n = 1) ([1]; Table 4): Inactive
PBS Solubility ([2]; pH 7.4): <1.0 µM
Growth Inhibition Activity, IC50 (μM), C. albicans (n = 3) CaCi-17 ([3]; Table 4): inactive
IC50 ([4]; Table 4): 1.8 µM

O=C1NC(=S)N(c2ccc(F)cc2)C12CCCCC2 [compound 56604862]
Growth Inhibition Activity, IC50 (μM), 3T3 Fibroblasts (n = 1) ([1]; Table 7): Inactive
solubility at 24 h [2]: 43 µM (≈ 12 µg/mL)
Growth Inhibition Activity, IC50 (μM), C. albicans (n = 3) CaCi-17 ([3]; Table 7): inactive
Growth Inhibition Activity, IC50 (μM), C. albicans (n = 3) CaCi-2 ([4]; Table 7): inactive

CCOC(=O)N1C(=O)C2(CCOCC2)N(c2ccc(C)cc2)C1=S [compound 56604818]
Growth Inhibition Activity, IC50 (μM), 3T3 Fibroblasts (n = 1) ([1]; Table 5): Inactive
PBS Solubility ([2]; pH 7.4): 28.5 µM
Growth Inhibition Activity, IC50 (μM), C. albicans (n = 3) CaCi-17 ([3]; Table 5): inactive
IC50 ([4]; Table 5): 20.6 µM

CCOC(=O)N1C(=O)C2(CCCCC2)N(c2ccc(-c3ccccc3)cc2)C1=S [compound 56604882]
IC50 [1, 5]: 9.8 µM
PBS Solubility [2, 6]: <1.0 µM
Growth Inhibition Activity, IC50 (μM), C. albicans (n = 3) CaCi-17 ([3]; Table 4): inactive
Growth Inhibition Activity, IC50 (μM), C. albicans (n = 3) CaCi-2 ([4]; Table 4): inactive

CCOC(=O)N1C(=O)C2(CCCCC2)N(Cc2ccccc2)C1=S [compound 56604878]
Growth Inhibition Activity, IC50 (μM), 3T3 Fibroblasts (n = 1) ([1]; Table 4): Inactive
PBS Solubility [2, 6]: 7.2 µM
IC50 ([3]; Table 4): 22.8 µM
IC50 ([4]; Table 4): 3.8 µM

CCCCN1C(=O)N(c2ccc(C)cc2)C2(CCCCC2)C1=O [compound 56604877]
Growth Inhibition Activity, IC50 (μM), 3T3 Fibroblasts (n = 1) ([1]; Table 6): Inactive
solubility at 24 h [2]: 64 µM (≈ 20.1 µg/mL)
Growth Inhibition Activity, IC50 (μM), C. albicans (n = 3) CaCi-17 ([3]; Table 6): inactive
Growth Inhibition Activity, IC50 (μM), C. albicans (n = 3) CaCi-2 ([4]; Table 6): inactive

CCCc1ccc(N2C(=S)N(C(=O)OCC)C(=O)C23CCCCC3)cc1 [compound 56604858]
Growth Inhibition Activity, IC50 (μM), 3T3 Fibroblasts (n = 1) ([1]; Table 4): Inactive
PBS Solubility ([2]; pH 7.4): <1.0 µM
Growth Inhibition Activity, IC50 (μM), C. albicans (n = 3) CaCi-17 ([3]; Table 4): inactive
IC50 ([4]; Table 4): 6.9 µM

CCOC(=O)N1C(=O)C2(CCCC2)N(c2ccc(C)cc2)C1=S [compound 56604843]
Growth Inhibition Activity, IC50 (μM), 3T3 Fibroblasts (n = 1) ([1]; Table 5): Inactive
PBS Solubility ([2]; pH 7.4): 9.2 µM
Growth Inhibition Activity, IC50 (μM), C. albicans (n = 3) CaCi-17 ([3]; Table 5): inactive
IC50 ([4]; Table 5): 9.8 µM

Cc1ccc(N2C(=O)NC(=O)C23CCCCC3)cc1 [compound 56604883]
Growth Inhibition Activity, IC50 (μM), 3T3 Fibroblasts (n = 1) ([1]; Table 7): Inactive
solubility at 24 h [2]: 14 µM (≈ 3.62 µg/mL)
Growth Inhibition Activity, IC50 (μM), C. albicans (n = 3) CaCi-17 ([3]; Table 7): inactive
Growth Inhibition Activity, IC50 (μM), C. albicans (n = 3) CaCi-2 ([4]; Table 7): inactive

CCOC(=O)N1C(=O)C2(CCCCC2)N(c2ccc(C(F)(F)F)cc2)C1=S [compound 56604813]
IC50 [1, 5]: 12.5 µM
PBS Solubility ([2]; pH 7.4): <1.0 µM
IC50 ([3]; Table 4): 16.2 µM
IC50 ([4]; Table 4): 0.8 µM

CCOC(=O)N1C(=O)C2(CCCCC2)N(c2ccc(CC)cc2)C1=S [compound 56604836]
IC50 [1, 5]: 19.5 µM
PBS Solubility [2, 6]: <1.0 µM
Growth Inhibition Activity, IC50 (μM), C. albicans (n = 3) CaCi-17 ([3]; Table 4): inactive
IC50 ([4]; Table 4): 1.9 µM

Cc1ccc(N2C(=O)N(C)C(=O)C23CCCCC3)cc1 [compound 56604845]
Growth Inhibition Activity, IC50 (μM), 3T3 Fibroblasts (n = 1) ([1]; Table 6): Inactive
solubility at 24 h [2]: 100 µM (≈ 27.2 µg/mL)
Growth Inhibition Activity, IC50 (μM), C. albicans (n = 3) CaCi-17 ([3]; Table 6): inactive
Growth Inhibition Activity, IC50 (μM), C. albicans (n = 3) CaCi-2 ([4]; Table 6): inactive

Cc1ccc(N2C(=S)N(C(=O)OC(C)C)C(=O)C23CCCCC3)cc1 [compound 56604859]
Growth Inhibition Activity, IC50 (μM), 3T3 Fibroblasts (n = 1) ([1]; Table 3): Inactive
PBS Solubility ([2]; pH 7.4): <1.0 µM
Growth Inhibition Activity, IC50 (μM), C. albicans (n = 3) CaCi-17 ([3]; Table 3): inactive
IC50 ([4]; Table 3): 5.9 µM

O=C1NC(=S)NC12CCCCC2 [compound 56604841]
Growth Inhibition Activity, IC50 (μM), 3T3 Fibroblasts (n = 1) ([1]; Table 7): Inactive
solubility at 24 h [2]: > 100 µM
Growth Inhibition Activity, IC50 (μM), C. albicans (n = 3) CaCi-17 ([3]; Table 7): inactive
Growth Inhibition Activity, IC50 (μM), C. albicans (n = 3) CaCi-2 ([4]; Table 7): inactive

CCOC(=O)N1C(=O)C2(CCC2)N(c2ccc(C)cc2)C1=S [compound 56604894]
Growth Inhibition Activity, IC50 (μM), 3T3 Fibroblasts (n = 1) ([1]; Table 5): Inactive
PBS Solubility ([2]; pH 7.4): 9.9 µM
Growth Inhibition Activity, IC50 (μM), C. albicans (n = 3) CaCi-17 ([3]; Table 5): inactive
Growth Inhibition Activity, IC50 (μM), C. albicans (n = 3) CaCi-2 ([4]; Table 5): Inactive

Cc1ccc(N2C(=S)N(S(C)(=O)=O)C(=O)C23CCCCC3)cc1 [compound 56604886]
Growth Inhibition Activity, IC50 (μM), 3T3 Fibroblasts (n = 1) ([1]; Table 3): Inactive
PBS Solubility ([2]; pH 7.4): 29 µM
Growth Inhibition Activity, IC50 (μM), C. albicans (n = 3) CaCi-17 ([3]; Table 3): inactive
Growth Inhibition Activity, IC50 (μM), C. albicans (n = 3) CaCi-2 ([4]; Table 3): inactive

CCOC(=O)N1C(=O)C2(CCCCC2)N(C(C)C)C1=S [compound 56604896]
Growth Inhibition Activity, IC50 (μM), 3T3 Fibroblasts (n = 1) ([1]; Table 4): Inactive
PBS Solubility [2, 6]: 12 µM
Growth Inhibition Activity, IC50 (μM), C. albicans (n = 3) CaCi-17 ([3]; Table 4): inactive
Growth Inhibition Activity, IC50 (μM), C. albicans (n = 3) CaCi-2 ([4]; Table 4): inactive

CCOC(=O)N1C(=O)C2(CCCCC2)N(c2ccc(C(C)C)cc2)C1=S [compound 56604817]
IC50 [1, 5]: 13.8 µM
PBS Solubility [2, 6]: <1.0 µM
Growth Inhibition Activity, IC50 (μM), C. albicans (n = 3) CaCi-17 ([3]; Table 4): inactive
Growth Inhibition Activity, IC50 (μM), C. albicans (n = 3) CaCi-2 ([4]; Table 4): inactive

CCCC(=O)N1C(=O)C2(CCCCC2)N(c2ccc(C)cc2)C1=S [compound 56604869]
IC50 ([1]; read-out: Growth Inhibition Activity, IC50 (μM), 3T3 Fibroblasts (n = 1), Table 3): 18.8 µM
PBS Solubility ([2]; pH 7.4): 2.2 µM
Growth Inhibition Activity, IC50 (μM), C. albicans (n = 3) CaCi-17 ([3]; Table 3): inactive
Growth Inhibition Activity, IC50 (μM), C. albicans (n = 3) CaCi-2 ([4]; Table 3): inactive

O=C1NC(=S)N(c2ccccc2)C12CCCCC2 [compound 823120]
Growth Inhibition Activity, IC50 (μM), 3T3 Fibroblasts (n = 1) ([1]; Table 7): Inactive
solubility at 24 h [2]: 79 µM (≈ 20.6 µg/mL)
Growth Inhibition Activity, IC50 (μM), C. albicans (n = 3) CaCi-17 ([3]; Table 7): inactive
Growth Inhibition Activity, IC50 (μM), C. albicans (n = 3) CaCi-2 ([4]; Table 7): inactive
